This experiment concerns the target T1, mouse VISTA (mVISTA) (Mus musculus, UniProt Q9D659).
T1 construct: expressed in transfected cells; host or cells: Human embryonic kidney 293T cells
T1 sequence (Q9D659 33-308): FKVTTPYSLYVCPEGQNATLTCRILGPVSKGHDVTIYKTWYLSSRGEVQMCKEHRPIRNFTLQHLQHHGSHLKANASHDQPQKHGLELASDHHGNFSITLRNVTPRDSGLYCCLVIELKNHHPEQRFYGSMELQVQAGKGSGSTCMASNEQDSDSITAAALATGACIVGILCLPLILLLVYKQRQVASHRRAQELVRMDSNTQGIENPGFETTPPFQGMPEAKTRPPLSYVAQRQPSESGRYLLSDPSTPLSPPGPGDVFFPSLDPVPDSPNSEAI
In words: Cell-Based Binding High-Content Assay For mVISTA (HC CBA mVISTA). The procedure, abridged:
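This high-content binding assay uses HEK293T cells expressing murine VISTA, measuring displacement of 2 nM biotinylated peptide by fluorescent streptavidin imaging. IC50 values come from four-parameter logistic fitting.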

Setting [1] is: cell-based binding high-content assay, mVISTA, read-out: HC CBA miPr ISTA IC50.
The mark [2] stands for this setting: 293T cells expressing mouse VISTA, competition with biotinylated peptide (2 nM), read-out: HC CBA mVISTA IC50.

pIC50: −log10 of the molar value. Like-named read-outs stand apart in the source and are kept apart here. Starred links: 1 amine or outer side, 2 acyl side, 3 side chain; linkers in the order of their positions; H or OH if unused. Positions of bridges follow the written chain, without caps; N, C: chain ends. Non-standard residues stand in square brackets, D forms with d. Residues, ends and D or L forms follow the SMILES beside them. Phe(3,4,5-F3) = N[C@@H](Cc1cc(F)c(F)c(F)c1)C(=O)O; Phe(4-COOH) = N[C@@H](Cc1ccc(C(=O)O)cc1)C(=O)O; Phe(3-Me) = Cc1cccc(C[C@H](N)C(=O)O)c1; 2Nal = N[C@@H](Cc1ccc2ccccc2c1)C(=O)O; βAsp = O=C(O)[C@H](CC(=O)[*:2])N[*:1]; Cit = NC(=O)NCCC[C@H](N)C(=O)O; NMeL = CN[C@@H](CC(C)C)C(=O)O; Ahp(2) = CCCCC[C@H](N)C(=O)O; NMeNle = CCCC[C@H](NC)C(=O)O; Tle = CC(C)(C)[C@H](N)C(=O)O; NHexGly = CCCCCCNCC(=O)O; Nle = CCCC[C@H](N)C(=O)O; Orn = NCCC[C@H](N)C(=O)O; Aun = NCCCCCCCCCCC(=O)O; AEEA = NCCOCCOCC(=O)O

Usually pIC50 stands for −log10 of the IC50, conventionally taken in molar units. As for `CCCCCCN1CC(=O)N[C@@H](Cc2ccc(O)cc2)C(=O)N[C@@H](CCCC)C(=O)N[C@@H](CC(N)=O)C(=O)N[C@@H](CCCNC(=N)N)C(=O)N(C)[C@@H](CC(C)C)C(=O)N[C@@H](CCCCC)C(=O)N2CCC[C@H]2C(=O)N[C@@H](C(C)C)C(=O)N[C@@H](CO)C(=O)N[C@H](C(=O)NCCOCCOCC(=O)N[C@@H](CC(=O)O)C(=O)NCCOCCOCC(=O)NCCCCCCCCCCC(=O)O)CSCC(=O)N[C@@H](Cc2ccc3ccccc3c2)C(=O)N[C@@H](Cc2ccc(O)cc2)C(=O)N[C@@H](CC(=O)O)C1=O` [compound 2313] ({CH2CO}-[2Nal]YD[NHexGly]Y[Nle]NR[NMeL][Ahp(2)]PVSC[AEEA]D[AEEA][Aun]-OH; thioether N-14), the pIC50 (cell-based binding high-content assay, read-out: HC CBA miPrISTA IC50) is 7.55.
`CCCCCCN1CC(=O)N[C@@H](Cc2ccc(O)cc2)C(=O)N[C@@H](CC(C)C)C(=O)N[C@@H](CC(N)=O)C(=O)N[C@@H](CCCN)C(=O)N(C)[C@@H](CCCC)C(=O)N[C@@H](CCCCC)C(=O)N2CCC[C@H]2C(=O)N[C@@H](C(C)(C)C)C(=O)N[C@@H](CO)C(=O)N[C@H](C(=O)N[C@@H](CC(=O)NCCOCCOCC(=O)N[C@@H](CC(=O)O)C(=O)NCCOCCOCC(=O)NCCCCCCCCCCC(=O)O)C(=O)O)CSCC(=O)N[C@@H](Cc2ccccc2)C(=O)N[C@@H](Cc2ccc(O)cc2)C(=O)N[C@@H](CC(=O)O)C1=O` [compound 2045] ({CH2CO}-FYD[NHexGly]YLN[Orn][NMeNle][Ahp(2)]P[Tle]SC[βAsp][AEEA]D[AEEA][Aun]-OH; thioether N-14): the pIC50 under setting [1] was 7.70.
`CCCCCCN1CC(=O)N[C@@H](Cc2ccc(O)cc2)C(=O)N[C@@H](CCCC)C(=O)N[C@@H](CC(N)=O)C(=O)N[C@@H](CCCNC(=N)N)C(=O)N(C)[C@@H](CCCC)C(=O)N[C@@H](CCCCC)C(=O)N2CCC[C@H]2C(=O)N[C@@H](C(C)C)C(=O)N[C@@H](CCCNC(=N)N)C(=O)N[C@H](C(=O)NCC(=O)O)CSCC(=O)N[C@@H](Cc2ccccc2)C(=O)N[C@@H](Cc2c[nH]c3ccccc23)C(=O)N[C@@H](CC(=O)O)C1=O` [Example 1380] ({CH2CO}-FWD[NHexGly]Y[Nle]NR[NMeNle][Ahp(2)]PVRCG-OH; thioether N-14): the pIC50 (read-out: HC CBA mVISTA IC50) was 7.92.
Regarding `CCCCCCN1CC(=O)N[C@@H](Cc2ccc(O)cc2)C(=O)N[C@@H](CCCC)C(=O)N[C@@H](CC(=O)O)C(=O)N[C@@H](CCCNC(=N)N)C(=O)N[C@@H](CC(C)C)C(=O)N[C@@H](CCCCC)C(=O)N2CCC[C@H]2C(=O)N[C@@H](C(C)C)C(=O)N[C@@H](CO)C(=O)N[C@H](C(=O)NCC(=O)O)CSCC(=O)N[C@@H](Cc2ccccc2)C(=O)N[C@@H](Cc2c[nH]c3ccccc23)C(=O)N[C@@H](CC(=O)O)C1=O` [Example 1356] ({CH2CO}-FWD[NHexGly]Y[Nle]DRL[Ahp(2)]PVSCG-OH; thioether N-14), the negative-log IC50 (pIC50) (read-out: HC CBA mVISTA IC50) was 7.54.
Turning to `CCCCCCN1CC(=O)N[C@@H](Cc2ccc(O)cc2)C(=O)N[C@@H](CC(C)C)C(=O)N[C@@H](CC(N)=O)C(=O)N[C@@H](CCCNC(=N)N)C(=O)N(C)[C@@H](CCCC)C(=O)N[C@@H](CCCCC)C(=O)N2CCC[C@H]2C(=O)N[C@@H](C(C)(C)C)C(=O)N[C@@H](CC(=O)O)C(=O)N[C@H](C(=O)N[C@@H](CC(=O)NCCOCCOCC(=O)N[C@@H](CC(=O)O)C(=O)NCCOCCOCC(=O)NCCCCCCCCCCC(=O)O)C(=O)O)CSCC(=O)N[C@@H](Cc2ccccc2)C(=O)N[C@@H](Cc2ccc(O)cc2)C(=O)N[C@@H](CC(=O)O)C1=O` [compound 2029] ({CH2CO}-FYD[NHexGly]YLNR[NMeNle][Ahp(2)]P[Tle]DC[βAsp][AEEA]D[AEEA][Aun]-OH; thioether N-14), the pIC50 under setting [1] was 7.76.
In the case of `CCCCCCN1CC(=O)N[C@@H](Cc2ccc(O)cc2)C(=O)N[C@@H](CCCCC)C(=O)NCC(=O)N[C@@H](CCCNC(N)=O)C(=O)N[C@@H](CC(C)C)C(=O)N[C@@H](CCCCC)C(=O)N2CCC[C@H]2C(=O)N[C@@H](C(C)C)C(=O)N[C@@H](CO)C(=O)N[C@H](C(=O)NCC(N)=O)CSCC(=O)N[C@@H](Cc2ccccc2)C(=O)N[C@@H](Cc2ccc(O)cc2)C(=O)N[C@@H](CC(=O)O)C1=O` [Example 1064] ({CH2CO}-FYD[NHexGly]Y[Ahp(2)]G[Cit]L[Ahp(2)]PVSCG-NH2; thioether N-14), under setting [2], the pIC50 is 8.03.
For `CCCCCCN1CC(=O)N[C@@H](Cc2ccc(O)cc2)C(=O)N[C@@H](CCCC)C(=O)N[C@@H](CC(N)=O)C(=O)N[C@@H](CCCNC(=N)N)C(=O)N[C@@H](CC(C)C)C(=O)N[C@@H](CCCCC)C(=O)N2CCC[C@H]2C(=O)N[C@@H](C(C)C)C(=O)N[C@@H](CC(=O)O)C(=O)N[C@H](C(=O)NCC(=O)O)CSCC(=O)N[C@@H](Cc2cc(F)c(F)c(F)c2)C(=O)N[C@@H](Cc2c[nH]c3ccccc23)C(=O)N[C@@H](CC(=O)O)C1=O` [compound 1456] ({CH2CO}-[Phe(3,4,5-F3)]WD[NHexGly]Y[Nle]NRL[Ahp(2)]PVDCG-OH; thioether N-14), the pIC50 (the 20th table, scaffold drawing 23, read-out: HC CBA mVISTA IC50) was 7.77.
Consider `CCCCCCN1CC(=O)N[C@@H](Cc2ccc(O)cc2)C(=O)N[C@@H](CCCC)C(=O)NCC(=O)N[C@@H](CCCNC(N)=O)C(=O)N[C@@H](CC(C)C)C(=O)N[C@@H](CCCCC)C(=O)N2CCC[C@H]2C(=O)N[C@@H](C(C)C)C(=O)N[C@@H](CC(=O)O)C(=O)N[C@H](C(=O)NCC(=O)NCCOCCOCC(=O)N[C@@H](CC(=O)O)C(=O)NCCOCCOCC(=O)NCCCCCCCCCCC(=O)O)CSCC(=O)N[C@@H](Cc2cccc(C)c2)C(=O)N[C@@H](Cc2ccc(O)cc2)C(=O)N[C@@H](CC(=O)O)C1=O` [compound 2019] ({CH2CO}-[Phe(3-Me)]YD[NHexGly]Y[Nle]G[Cit]L[Ahp(2)]PVDCG[AEEA]D[AEEA][Aun]-OH; thioether N-14), for which the pIC50 under setting [1] is 7.84.
With `CCCCCCN1CC(=O)N[C@@H](Cc2ccc(O)cc2)C(=O)N[C@@H](CCCC)C(=O)N[C@@H](CC(N)=O)C(=O)N[C@@H](CCCNC(=N)N)C(=O)N(C)[C@@H](CC(C)C)C(=O)N[C@@H](CCCCC)C(=O)N2CCC[C@H]2C(=O)N[C@@H](C(C)C)C(=O)N[C@@H](CC(=O)O)C(=O)N[C@H](C(=O)NCC(=O)O)CSCC(=O)N[C@@H](Cc2ccc3ccccc3c2)C(=O)N[C@@H](Cc2c[nH]c3ccccc23)C(=O)N[C@@H](CC(=O)O)C1=O` [compound 1239] ({CH2CO}-[2Nal]WD[NHexGly]Y[Nle]NR[NMeL][Ahp(2)]PVDCG-OH; thioether N-14), the pIC50 (cell-based binding high-content assay, mVISTA, the 15th table, read-out: HC CBA mVISTA IC50) was 8.49.
For the compound `CCCCCCN1CC(=O)N[C@@H](Cc2ccc(O)cc2)C(=O)N[C@@H](CCCC)C(=O)N[C@@H](CC(N)=O)C(=O)N[C@@H](CCCNC(=N)N)C(=O)N[C@@H](Cc2ccc(C(=O)O)cc2)C(=O)N[C@@H](CCCCC)C(=O)N2CCC[C@H]2C(=O)N[C@@H](C(C)C)C(=O)N[C@@H](CO)C(=O)N[C@H](C(=O)N[C@@H](CC(=O)NCCOCCOCC(=O)NCCCCCCCCCCC(=O)O)C(=O)O)CSCC(=O)N[C@@H](Cc2ccccc2)C(=O)N[C@@H](Cc2c[nH]c3ccccc23)C(=O)N[C@@H](CC(=O)O)C1=O` [Example 2176] ({CH2CO}-FWD[NHexGly]Y[Nle]NR[Phe(4-COOH)][Ahp(2)]PVSC[βAsp][AEEA][Aun]-OH; thioether N-14), for the setting “read-out: HC CBA mVISTA IC50”, the pIC50 was 7.70.
`CCCCCCN1CC(=O)N[C@@H](Cc2ccc(O)cc2)C(=O)N[C@@H](CCCC)C(=O)N[C@@H](CC(=O)O)C(=O)N[C@@H](CCCNC(=N)N)C(=O)N[C@@H](CC(C)C)C(=O)N[C@@H](CCCCC)C(=O)N2CCC[C@H]2C(=O)N[C@@H](C(C)C)C(=O)N[C@@H](CC(=O)O)C(=O)N[C@H](C(=O)N[C@@H](CC(=O)O)C(N)=O)CSCC(=O)N[C@@H](Cc2ccccc2)C(=O)N[C@@H](Cc2ccc(O)cc2)C(=O)N[C@@H](CC(=O)O)C1=O` [Example 1001] ({CH2CO}-FYD[NHexGly]Y[Nle]DRL[Ahp(2)]PVDCD-NH2; thioether N-14): the pIC50 under setting [2] is 7.90.
Consider `CCCCCCN1CC(=O)N[C@@H](Cc2ccc(O)cc2)C(=O)N[C@@H](CCCCN)C(=O)N[C@@H](CC(N)=O)C(=O)N[C@@H](CCCNC(=N)N)C(=O)N(C)[C@@H](CCCC)C(=O)N[C@@H](CCCCC)C(=O)N2CCC[C@H]2C(=O)N[C@@H](C(C)(C)C)C(=O)N[C@@H](CO)C(=O)N[C@H](C(=O)N[C@@H](CC(=O)NCCOCCOCC(=O)N[C@@H](CC(=O)O)C(=O)NCCOCCOCC(=O)NCCCCCCCCCCC(=O)O)C(=O)O)CSCC(=O)N[C@@H](Cc2ccccc2)C(=O)N[C@@H](Cc2ccc(O)cc2)C(=O)N[C@@H](CC(=O)O)C1=O` [compound 2046] ({CH2CO}-FYD[NHexGly]YKNR[NMeNle][Ahp(2)]P[Tle]SC[βAsp][AEEA]D[AEEA][Aun]-OH; thioether N-14), for which the pIC50 under setting [1] is 7.46.
For the compound `CCCCCCN1CC(=O)N[C@@H](Cc2ccc(O)cc2)C(=O)N[C@@H](CCCC)C(=O)N[C@@H](CC(N)=O)C(=O)N[C@@H](CCCNC(=N)N)C(=O)N(C)[C@@H](CC(C)C)C(=O)N[C@@H](CCCCC)C(=O)N2CCC[C@H]2C(=O)N[C@@H](C(C)C)C(=O)N[C@@H](CC(=O)O)C(=O)N[C@H](C(=O)N[C@@H](CO)C(=O)O)CSCC(=O)N[C@@H](Cc2ccccc2)C(=O)N[C@@H](Cc2c[nH]c3ccccc23)C(=O)N[C@@H](CC(=O)O)C1=O` [Example 1370] ({CH2CO}-FWD[NHexGly]Y[Nle]NR[NMeL][Ahp(2)]PVDCS-OH; thioether N-14), the pIC50 (read-out: HC CBA mVISTA IC50) is 7.73.

The record behind these values is patent publication US20240218022A1, “ANTI-VISTA MACROCYCLIC PEPTIDES AND COMPOSITIONS” (BRISTOL-MYERS SQUIBB COMPANY, priority 2022, published 2024).
